# US8133909B2 (Hoffmann-La Roche Inc., priority 2008, dated 2012)
# Structures can show the parent of a compound that is named as a salt.
# Target: T1, human orexin-2 (hOX2) receptors (Homo sapiens, UniProt O43614)
# T1 construct: expressed in transfected cells
# T1 sequence (O43614 1-444): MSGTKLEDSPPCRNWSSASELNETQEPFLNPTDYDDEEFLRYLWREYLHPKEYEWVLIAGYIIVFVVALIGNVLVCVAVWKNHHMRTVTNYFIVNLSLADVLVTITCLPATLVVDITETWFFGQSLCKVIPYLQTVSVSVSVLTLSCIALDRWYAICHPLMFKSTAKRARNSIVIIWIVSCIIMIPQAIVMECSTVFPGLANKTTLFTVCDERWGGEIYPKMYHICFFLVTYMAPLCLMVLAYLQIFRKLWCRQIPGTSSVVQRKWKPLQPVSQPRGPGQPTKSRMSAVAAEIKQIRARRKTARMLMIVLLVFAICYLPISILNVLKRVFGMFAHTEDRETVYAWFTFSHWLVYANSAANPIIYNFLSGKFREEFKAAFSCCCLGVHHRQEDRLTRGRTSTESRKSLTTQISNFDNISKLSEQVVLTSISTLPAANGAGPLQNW
# Experiment: Intracellular Ca2+ mobilization assay (FLIPR), antagonism of orexin-A
# Type: cell-based
# Settings: CHO(dHFr-) cells stably expressing hOX2; orexin-A at EC80 as agonist; antagonist applied 25 min before; Kb=IC50/(1+[A]/EC50); read-out: Kb (μM) OX2R (human)
# Experimental: Intracellular Ca^2+ Mobilization Assay
# The Chinese Hamster Ovary (dHFr—) mutant cell line stably expressing human orexin-1 (hOX1) or human orexin-2 (hOX2) receptors were maintained in Dulbecco's Modified Eagle Medium (1X) with GlutaMax™ 1, 4500 mg/L D-Glucose and Sodium Pyruvate (Catalog No. 31966-021, Invitrogen, Carlsbad, Calif.), 5% dialyzed fetal calf serum (Catalog No. 26400-044), 100 μg/ml penicillin and 100 μg/ml streptomycin. The cells were seeded at 5×10^4 cells/well in the poly-D-lysine treated, 96-well, black/clear-bottomed plates (Catalog No. BD356640, BD Biosciences, Palo Alto, Calif.). 24 h later, the cells were loaded for 1 h at 37° C. with 4 μM Flou-4 acetoxymethyl ester (Catalog No. F-14202, Molecular Probes, Eugene, Oreg.) in FLIPR buffer (1×HBSS, 20 mM HEPES, 2.5 mM Probenecid). Hanks' Balanced Salt Solution (HBSS) (10×) (catalog No. 14065-049) and HEPES (1M) (catalog No. 15630-056) were purchased from Invitrogen, Carlsbad, Calif. Probenecid (250 mM) (catalog No. P8761) was from Sigma, Buchs, Switzerland. The cells were washed five times with FLIPR buffer to remove excess dye and intracellular calcium mobilization, [Ca^2+]i were measured using a Fluorometric Imaging Plate Reader (FLIPR-96, Molecular Devices, Menlo Park, Calif.) as described previously (Malherbe et al., Mol. Pharmacol., 64, 823-832, 2003). Orexin A (catalog No. 1455, Toris Cookson Ltd, Bristol, UK) was used as agonist. Orexin A (50 mM stock solution in DMSO) was diluted in FLIPR buffer +0.1% BSA. The EC50 and EC80 values of orexin-A were measured daily from standard agonist concentration-response curves in CHO(dHFr—)—OX1R and —OX2R cell lines. All compounds were dissolved in 100% DMSO. Inhibition curves were determined by addition of 11 concentrations (0.0001-10 μM) of inhibitory compounds and using EC80 value of orexin-A as agonist (a concentration which gave 80% of max agonist response, determined daily). The antagonists were applied 25 min (incubation at 37° C.) before the application of the agonist. Responses were measured as peak increase in fluorescence minus basal, normalized to the maximal stimulatory effect induced by EC80 value of orexin-A or orexin- B. Inhibition curves were fitted according to the Hill equation: y=100/(1+(x/IC50)^nH), where nH=slope factor using Excel-fit 4 software (Microsoft). Kb values were calculated according to the following equation Kb=IC50/(1+[A]/EC50) where A is the concentration of agonist added which is very close to agonist EC80 value, and IC50 and EC50 values were derived from the antagonist inhibition and orexin-A or B agonist curves, respectively.
row,Kb,Structure (SMILES)
1,0.0038 µM,"Cc1ccc(N(CCc2ccc(C(F)(F)F)cn2)C(=O)[C@@H](O)c2ccccc2)cc1C [Example 26, (S)—N-(3,4-Dimethyl-phenyl)-2-hydroxy-2-phenyl-N-[2-(5-trifluoromethyl-pyridin-2-yl)-ethyl]-acetamide]"
2,0.0216 µM,"O=C(C(O)c1ccc(F)cc1)N(CCc1ccc(C(F)(F)F)cn1)c1ccc(Cl)c(CO)c1 (racemic) [Example 98, (R,S)—N-(4-Chloro-3-hydroxymethyl-phenyl)-2-(4-fluoro-phenyl)-2-hydroxy-N-[2-(5-trifluoromethyl-pyridin-2-yl)-ethyl]-acetamide]"
3,0.0075 µM,"Cc1cc(N(CCc2ccc(C(F)(F)F)cn2)C(=O)C(O)c2ccc(F)cc2)ccc1F (racemic) [Example 77, (R,S)—N-(4-Fluoro-3-methyl-phenyl)-2-(4-fluoro-phenyl)-2-hydroxy-N-[2-(5-trifluoromethyl-pyridin-2-yl)-ethyl]-acetamide]"
4,0.0197 µM,"Cc1cc(N(CCc2ccc(C(F)(F)F)cn2)C(=O)[C@@H](O)c2ccc(F)cc2)ccc1F [Example 81, (S)—N-(4-Fluoro-3-methyl-phenyl)-2-(4-fluoro-phenyl)-2-hydroxy-N-[2-(5-trifluoromethyl-pyridin-2-yl)-ethyl]-acetamide]"
5,0.0216 µM,"O=C(C(O)c1ccc(F)cc1)N(CCc1ccc(C(F)(F)F)cn1)c1ccc(OC(F)F)c(OC(F)F)c1 (racemic) [Example 96, (R,S)—N-(3,4-Bis-difluoromethoxy-phenyl)-2-(4-fluoro-phenyl)-2-hydroxy-N-[2-(5-trifluoromethyl-pyridin-2-yl)-ethyl]-acetamide]"
6,0.0438 µM,"O=C(C(O)c1ccc(F)cc1)N(CCc1ccc(C(F)(F)F)cn1)c1ccc(F)c(CO)c1 (racemic) [Example 90, (R,S)—N-(4-Fluoro-3-hydroxymethyl-phenyl)-2-(4-fluoro-phenyl)-2-hydroxy-N-[2-(5-trifluoromethyl-pyridin-2-yl)-ethyl]-acetamide]"
7,0.0195 µM,"Cc1ccc(N(CCc2ccc(C(F)(F)F)cn2)C(=O)C(O)c2ccc(F)cc2)cc1OC(F)F (racemic) [Example 95, (R,S)-N-(3-Difluoromethoxy-4-methyl-phenyl)-2-(4-fluoro-phenyl)-2-hydroxy-N-[2-(5-trifluoromethyl-pyridin-2-yl)-ethyl]-acetamide]"
8,0.0198 µM,"O=C([C@@H](O)c1ccc(F)cc1)N(CCc1ccc(C(F)(F)F)cn1)c1ccc2c(c1)CCO2 [Example 87, (S)—N-(2,3-Dihydro-benzofuran-5-yl)-2-(4-fluoro-phenyl)-2-hydroxy-N-[2-(5-trifluoromethyl-pyridin-2-yl)-ethyl]-acetamide]"
9,0.0313 µM,"O=C([C@H](O)c1ccc(F)cc1)N(CCc1ccc(C(F)(F)F)cn1)c1ccc2c(c1)CCC2 (racemic) [Example 73, (R,S)-2-(4-Fluoro-phenyl)-2-hydroxy-N-indan-5-yl-N-[2-(5-trifluoromethyl-pyridin-2-yl)-ethyl]-acetamide]"
10,0.0146 µM,"COc1cc(N(CCc2ccc(C(F)(F)F)cn2)C(=O)[C@@H](O)c2ccc(F)cc2)ccc1F [Example 92, (S)—N-(4-Fluoro-3-methoxy-phenyl)-2-(4-fluoro-phenyl)-2-hydroxy-N-[2-(5-trifluoromethyl-pyridin-2-yl)-ethyl]-acetamide]"
11,0.0239 µM,"O=C(C(O)c1ccc(F)cc1)N(CCc1ccc(C(F)(F)F)cn1)c1ccc(Cl)c(OC2CC2)c1 (racemic) [Example 103, (R,S)—N-(4-Chloro-3-cyclopropoxy-phenyl)-2-(4-fluoro-phenyl)-2-hydroxy-N-[2-(5-trifluoromethyl-pyridin-2-yl)-ethyl]-acetamide]"

# Continued, compound first:
row,Structure (SMILES),Kb
1,"O=C([C@@H](O)c1ccccc1)N(CCc1ccc(C(F)(F)F)nc1)c1ccc2c(c1)CCCC2 [Example 12, (S)-2-Hydroxy-2-phenyl-N-(5,6,7,8-tetrahydro-naphthalen-2-yl)-N-[2-(6-trifluoromethyl-pyridin-3-yl)-ethyl]-acetamide]",0.0015 µM
2,"O=C([C@@H](O)c1ccc(F)cc1)N(CCc1ccc(C(F)(F)F)nc1)c1ccc2c(c1)C(O)CCO2 (single isomer, unassigned) [Example 101, (S)-2-(4-Fluoro-phenyl)-2-hydroxy-N—((R or S)-4-hydroxy-chroman-6-yl)-N-[2-(6-trifluoromethyl-pyridin-3-yl)-ethyl]-acetamide]",0.0116 µM
3,"O=C([C@@H](O)c1ccc(F)cc1)N(CCc1ccc(C(F)(F)F)nc1)c1ccc2c(c1)C(O)CCO2 (single isomer, unassigned) [Example 102, (S)-2-(4-Fluoro-phenyl)-2-hydroxy-N-((S or R)-4-hydroxy-chroman-6-yl)-N-[2-(6-trifluoromethyl-pyridin-3-yl)-ethyl]-acetamide]",0.0116 µM
4,"Cc1ccc(N(CCc2ccc(C(F)(F)F)nc2)C(=O)[C@H](O)c2ccccc2)cc1C [Example 3, (R)—N-(3,4-Dimethyl-phenyl)-2-hydroxy-2-phenyl-N-[2-(6-trifluoromethyl-pyridin-3-yl)-ethyl]-acetamide]",0.0159 µM
5,"Cc1nn(C)c2ccc(N(CCc3ccc(C(F)(F)F)nc3)C(=O)[C@@H](O)c3ccc(F)cc3)cc12 [Example 107, (S)—N-(1,3-Dimethyl-1H-indazol-5-yl)-2-(4-fluoro-phenyl)-2-hydroxy-N-[2-(6-trifluoromethyl-pyridin-3-yl)-ethyl]-acetamide]",0.0046 µM
6,"CC(=O)O[C@H](C(=O)N(CCc1ccc(C(F)(F)F)cn1)c1ccc(C)c(C)c1)c1ccccc1 [Example 65, Acetic acid (S)-{(3,4-dimethyl-phenyl)-[2-(5-trifluoromethyl-pyridin-2-yl)-ethyl]-carbamoyl}-phenyl-methyl ester]",0.0475 µM
7,"Cc1cc(N(CCc2ccc(C(F)(F)F)cc2)C(=O)C(N)c2ccc(Cl)cc2)n(C)n1 (racemic) [Example 39, (R,S)-2-Amino-2-(4-chloro-phenyl)-N-(2,5-dimethyl-2H-pyrazol-3-yl)-N-[2-(4-trifluoromethyl-phenyl)-ethyl]-acetamide]",0.0439 µM
8,"O=C([C@@H](O)c1ccccc1)N(CCc1ccc(C(F)(F)F)nc1)c1ccc2c(c1)[C@@H](O)CCO2 [Example 63, (S)-2-Hydroxy-N-((S)-4-hydroxy-chroman-6-yl)-2-phenyl-N-[2-(6-trifluoromethyl-pyridin-3-yl)-ethyl]-acetamide]",0.0243 µM
9,"Cc1csc(CCN(C(=O)[C@@H](N)c2ccccc2)c2ccc(C)c(C)c2)n1 [Example 67, (S)-2-Amino-N-(3,4-dimethyl-phenyl)-N-[2-(4-methyl-thiazol-2-yl)-ethyl]-2-phenyl-acetamide hydrochloride]",0.073 µM
10,"Cc1n[nH]c2ccc(N(CCc3ccc(C(F)(F)F)nc3)C(=O)[C@@H](O)c3ccc(F)cc3)cc12 [Example 106, (S)-2-(4-Fluoro-phenyl)-2-hydroxy-N-(3-methyl-1H-indazol-5-yl)-N-[2-(6-trifluoromethyl-pyridin-3-yl)-ethyl]-acetamide]",0.0249 µM
11,"O=C([C@@H](O)c1ccc(F)cc1)N(CCc1ccc(C(F)(F)F)nc1)c1ccc2c(c1)CCCC2 [Example 60, (S)-2-(4-Fluoro-phenyl)-2-hydroxy-N-(5,6,7,8-tetrahydro-naphthalen-2-yl)-N-[2-(6-trifluoromethyl-pyridin-3-yl)-ethyl]-acetamide]",0.0053 µM
12,"Cc1ccc(N(CCc2ccc(C(F)(F)F)nc2)C(=O)[C@@H](C)c2ccccc2)cc1C [Example 24, (S)—N-(3,4-Dimethyl-phenyl)-2-phenyl-N-[2-(6-trifluoromethyl-pyridin-3-yl)-ethyl]-propionamide]",0.0839 µM
